Molecules are shown by their SMILES.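 Cells were grown in 96-well plates and exposed to each compound for 48 hours at five concentrations; endpoints were interpolated linearly between bracketing concentrations, or set to the highest concentration if not reached. Abbreviation: GI50, concentration required for 50% inhibition of growth. TGI marks complete inhibition of growth.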

Test systems include HS 578T breast; OVCAR-3 ovarian; UO-31 renal; BT-549 breast; MALME-3M melanoma; LOX IMVI melanoma; M14 melanoma; RXF 393 renal; HCC-2998 colon; SK-OV-3 ovarian; 786-0 renal.
Test in all cases: inhibition of tumour cell growth, NCI panel, 48 h

For the compound `COc1cc(N(CCCl)CCCl)ccc1/C=N\NC(=O)c1cccnc1`, the GI50 is 32.6 µM with HS 578T breast; 21 µM in the test with OVCAR-3 ovarian; 23.8 µM in the test with UO-31 renal; 20.9 µM with BT-549 breast; 38.3 µM with MALME-3M melanoma; 32.2 µM in the test with LOX IMVI melanoma. Moreover, the GI50 is 37.5 µM in the test with M14 melanoma, 24.1 µM in the test on RXF 393 renal and 41.2 µM in the test on HCC-2998 colon. In addition, the TGI in the test on HS 578T breast is above 100 µM; in the test with OVCAR-3 ovarian, 50.4 µM; in the test with UO-31 renal, 79.1 µM; in the test with BT-549 breast, 89.5 µM; with MALME-3M melanoma, above 100 µM; with LOX IMVI melanoma it was above 100 µM. In addition, the TGI in the test on M14 melanoma is above 100 µM; in the test with RXF 393 renal it was 78.5 µM; in the test with HCC-2998 colon it was above 100 µM.
Regarding `CC(C)[Si](Oc1ccc(CC2N(C(=O)c3ccc([N+](=O)[O-])cc3)C(CCc3ccccc3)CC2(C)C=O)cc1)(C(C)C)C(C)C` (stereo unspecified), the TGI in the test on SK-OV-3 ovarian, in the test on HS 578T breast, in the test on OVCAR-3 ovarian, in the test with UO-31 renal, with BT-549 breast and in the test with MALME-3M melanoma was above 100 µM throughout. In addition, the TGI in the test with LOX IMVI melanoma is above 100 µM; in the test with RXF 393 renal, 28.2 µM; in the test on HCC-2998 colon it was above 100 µM; in the test on 786-0 renal, above 100 µM.
With `CC(=O)OCC1OC(O[C@H]2C=C[C@@H](C(=O)OCc3ccccc3)n3c(=O)n(-c4ccccc4)c(=O)n32)C(OC(C)=O)C(OC(C)=O)C1OC(C)=O` (stereo partly specified), the TGI with SK-OV-3 ovarian was 33.6 µM; with HS 578T breast, 4.55 µM; in the test with OVCAR-3 ovarian it was 3.18 µM; in the test on UO-31 renal it was 2.93 µM; with BT-549 breast, 3.29 µM; with M14 melanoma it was 2.95 µM. The TGI in the test on RXF 393 renal stood at 4.07 µM; in the test with HCC-2998 colon it was 3.22 µM; in the test with 786-0 renal it was 4.51 µM.
With `CC(C)CC1N=C(OCc2ccccc2)OC1=O` (stereo unspecified), the TGI in the test on SK-OV-3 ovarian, in the test on HS 578T breast, with OVCAR-3 ovarian, in the test with UO-31 renal, with BT-549 breast and with MALME-3M melanoma was above 100 µM in each case. In addition, the TGI with LOX IMVI melanoma, in the test with M14 melanoma, in the test on RXF 393 renal and in the test with 786-0 renal was above 100 µM in each case.
With `Cc1ccc(-c2cc(=O)c(=O)[nH][nH]2)cc1`, the TGI in the test on SK-OV-3 ovarian, with HS 578T breast, with OVCAR-3 ovarian, in the test with UO-31 renal, in the test with BT-549 breast and in the test on LOX IMVI melanoma was above 100 µM throughout. The TGI in the test with M14 melanoma, with RXF 393 renal, in the test on HCC-2998 colon and in the test with 786-0 renal was above 100 µM in each case.
For the compound `CCCCCCCCCCCCc1ccsc1-c1ccc(-c2ccc(-c3sccc3CCCCCCCCCCCC)s2)s1`, the TGI in the test on SK-OV-3 ovarian, with HS 578T breast, in the test with OVCAR-3 ovarian, in the test on UO-31 renal, in the test with BT-549 breast and in the test with LOX IMVI melanoma was above 100 µM in each case. The TGI in the test with M14 melanoma, in the test on RXF 393 renal, in the test with HCC-2998 colon and in the test with 786-0 renal was above 100 µM each time.
For the compound `C#CCn1c(=O)ccn(/C(=C/C(=O)OCC)C(=O)OCC)c1=O`, the TGI is above 100 µM with SK-OV-3 ovarian; 43.5 µM with HS 578T breast; 13.7 µM in the test on OVCAR-3 ovarian; 25.3 µM in the test with UO-31 renal; 23.2 µM in the test with BT-549 breast; 5.19 µM in the test with MALME-3M melanoma. Also, the TGI is 40.3 µM in the test on LOX IMVI melanoma, 11.8 µM in the test on M14 melanoma, 3.3 µM in the test on RXF 393 renal and 32.5 µM with 786-0 renal.
As for `CN1CCc2c(sc3ncn(Nc4ccc(F)cc4)c(=N)c23)C1`, the TGI in the test with SK-OV-3 ovarian, in the test on HS 578T breast, with OVCAR-3 ovarian, with BT-549 breast, in the test on MALME-3M melanoma and in the test with LOX IMVI melanoma was above 100 µM each time. For the same compound, the TGI in the test with M14 melanoma, in the test on RXF 393 renal and in the test with 786-0 renal was above 100 µM each time.
As for `COc1cc(C(c2ccc3c(c2)OCO3)C2SCCCS2)cc(OC)c1OC` (stereo unspecified), the TGI was above 100 µM with SK-OV-3 ovarian; 7.97 µM in the test with HS 578T breast; 27.4 µM in the test with OVCAR-3 ovarian; above 100 µM with UO-31 renal; above 100 µM with BT-549 breast; above 100 µM in the test on MALME-3M melanoma. The TGI with M14 melanoma amounted to 95.5 µM; with RXF 393 renal, 4.47 µM; in the test with HCC-2998 colon, 8.8 µM; with 786-0 renal it was 9.68 µM.
For `O[C@@]12Cc3c([nH]c4ccccc34)[C@@H]3Oc4c(-c5ccccc5)ccc5c4[C@@]31CCN(CC1CC1)[C@@H]2C5`, the TGI in the test on SK-OV-3 ovarian turned out to be 10.7 µM; in the test with HS 578T breast it was 4.62 µM; in the test on OVCAR-3 ovarian, 3.04 µM; in the test on UO-31 renal it was 3.11 µM; with BT-549 breast, 23.4 µM; in the test with MALME-3M melanoma, 3.99 µM. In addition, the TGI in the test on LOX IMVI melanoma is 3.52 µM; with M14 melanoma, 3.31 µM; in the test on HCC-2998 colon it was 2.92 µM; in the test on 786-0 renal, 3.04 µM.
For the compound `CC1(C)[C@H]2Cc3cc4nc5ccccn5c4cc3[C@@H]1C2`, the TGI stood at 36.4 µM with SK-OV-3 ovarian; 37.7 µM with HS 578T breast; 35.6 µM with OVCAR-3 ovarian; 26.9 µM with UO-31 renal; 41.5 µM in the test with BT-549 breast; 25.7 µM in the test on MALME-3M melanoma. Moreover, the TGI in the test with LOX IMVI melanoma was 39.4 µM; in the test with M14 melanoma it was 38.2 µM; in the test with HCC-2998 colon, 37 µM; in the test with 786-0 renal, 32.7 µM.
Regarding `O=C1N[C@H](C(=O)O)[C@@H](c2ccc(OCc3ccccc3)cc2)O1`, the TGI in the test on SK-OV-3 ovarian, in the test with HS 578T breast, with OVCAR-3 ovarian, in the test on UO-31 renal, with BT-549 breast and with MALME-3M melanoma was above 100 µM each time. The TGI in the test with M14 melanoma was above 100 µM; in the test on RXF 393 renal it was 32.1 µM; in the test on HCC-2998 colon it was above 100 µM; in the test with 786-0 renal, 65.6 µM.
For the compound `Cc1c(C#N)c2nc3ccccc3n2c(=O)/c1=C/Nc1ccc(Cl)cc1`, the TGI in the test with SK-OV-3 ovarian was 32.4 µM; in the test on HS 578T breast, 54.5 µM; with UO-31 renal, 70.9 µM; in the test with BT-549 breast, 99.6 µM; with MALME-3M melanoma it was above 100 µM; with LOX IMVI melanoma, above 100 µM. The TGI in the test on M14 melanoma is 40.9 µM; in the test with RXF 393 renal, 25.6 µM; with HCC-2998 colon, above 100 µM; in the test on 786-0 renal it was 20.7 µM.

The values are drawn from PubChem BioAssay (NCI).
